# Laboratory results taken from patent US20250367266A1, “ORAL PHARMACEUTICAL COMPOSITION FOR PREVENTION OR TREATMENT OF OSTEOPOROSIS CONTAINING TERIPARATIDE AND METHOD FOR PREPARATION THEREOF” (ICURE BNP CO., LTD., priority 2022, published 2025).
# Read-outs that look alike come from different tables or passages of the source.
# Columns and labels:
# [1] = Oral absorption: plasma TRP pharmacokinetics; format: in vivo, SD mice; settings: SD, mouse; for AUC(0-inf) / AUC(0-t) / Cmax / Tmax / half-life: single dose, n=5
# Protocol: The oral absorption of TRP/LDA/DA-DM in mice was evaluated by determining the effectiveness of electrostatic complexes of TRP with LDA and DA and micellar formulations using DM. After fasting overnight, SD mice were orally administered 400 μL of TRP-Oral (1.6) (1.6 mg/kg TRP dissolved in water) or TRP (1:5:7)-15 (1.6) (equivalent to 1.6 mg/kg TRP). In addition, animals were injected subcutaneously with 200 μL of TRP-SC (0.04) (0.04 mg/kg TRP dissolved in physiological saline) to evaluate the relative oral bioavailability. Blood samples (250 μL) were collected in heparinized tubes (lithium heparin) from a cannulated femoral vein at specified time points (0, 0.167, 0.5, 1, 1.5, 2, 3, 4, 6 hours). Finally, plasma was separated by centrifugation (2500×g, 15 min, 4° C.) and stored at […] until analysis.
# The plasma drug concentration of each sample was determined by UPLC-MS/MS. To construct a standard calibration curve, 180 μL of blank plasma was transferred to a tube, and then 10 μL of TRP at concentrations of 100, 50, 25, 10, 5, 2.5, 1, and 0 (blank) ng/ml was added to the blank plasma. To measure plasma drug concentrations after drug administration, 180 μL of mouse plasma samples at different time points were transferred to another tube, and then 10 μL hPTH (1-38) aqueous solution (100 ng/ml) (as an internal standard [IS]) was added to the TRP and blank plasma or drug-administered plasma samples. The samples were then precipitated by adding 200 μL acetonitrile containing 5% ammonium hydroxide. The precipitated sample was further diluted with 1 mL of water and centrifuged at 4° C. for 15 min at 4,000 rpm. The supernatant was extracted using the solid phase extraction (SPE) method and an Oasis® HLB uElution 96-well plate (Waters Corporation, Milford, MA, USA). Briefly, a 96-well plate was conditioned with 200 μL of methanol and then equilibrated with 200 μL of water. Four 350 μL aliquots of the supernatant were then added to each Oasis HLB uElution well. After the addition of standards or samples, the wells were washed with 200 μL of water containing 5% methanol. Then, TRP and IS were eluted with 25 μL of acetonitrile:water:trifluoroethanol:trifluoroacetic acid (60:34:5:1, v/v/v/v) mixture in two sequential aliquots. After further dilution of the eluate with 50 μL of water, 10 μL was injected into a UPLC system (Waters ACQUITY UPLC, Waters Corporation) equipped with an ACQUITY UPLC Peptide BEH C18 column (2.1×50 mm, 1.7 μm, 300 Å, Waters Corporation). The sample was placed at a low temperature of 6° C., and the column temperature was maintained at 60° C. during the analysis. Mobile phase A is composed of 0.5% (v/v) formic acid in water, and mobile phase B is composed of acetonitrile. TRP and IS were eluted at a gradient flow rate of 0.3 mL/min, where mobile phase A was equal to 85% (initial), 85% (0.8 min), 70% (1.2 min), 70% (2.2 min), 65% (2.7 min), 10% (3.0 min), 10% (4.0 min), 85% (5 min), and 85% (5 min). For ionization, a mass spectrometer (Xevo™ TO-S; Waters Corporation) was used in positive ion multiple reaction monitoring mode with electrospray voltage, source temperature, desolvation temperature, and desolvation gas flow rate of 3.0 kV, 150° C., 500° C., and 800 L/h, respectively. Quantification was performed with the transition of m/z 589.40→656.40 at 45 V cone voltage and 13 eV collision energy for TRP and m/z 744.20→855.50 at 20 V cone voltage and 20 eV collision energy for IS.
# [2] = system: dexamethasone-induced mouse osteoporosis model; assay: Anti-osteoporotic effect, femur micro-CT and histology; format: in vivo, C57BL/6 mice; settings: 4 weeks
# Protocol: (§1) To determine the anabolic effect of orally administered TRP/LDA/DA-DM on GC-induced osteoporosis, 9-week-old female C57BL/6 mice were randomly divided into 6 groups (n=10 per group): Control group (normal) (SC injection of normal saline once daily); Control group (DEX) (SC injection of 0.022 mg/kg DEX once daily); TRP-SC (0.02) (SC injection of 0.02 mg/kg TRP dissolved in physiological saline containing 0.022 mg/kg DEX once daily); TRP-oral (0.4) (SC injection of 0.022 mg/kg DEX dissolved in water with 0.4 mg/kg TRP orally once daily); RP (1:5:7)-15 (0.4) (once daily oral administration of TRP (1:5:7)-15 equivalent to 0.4 mg/kg TRP with SC injection of 0.022 mg/kg DEX); and TRP (1:5:7)-15 (0.8) (once daily oral administration of TRP (1:5:7)-15 equivalent to 0.8 mg/kg TRP with SC injection of 0.022 mg/kg DEX). Blood samples were collected for biochemical analysis 4 weeks after treatment.
# In addition, femurs from 10 mice in each group were collected and fixed in 4% paraformaldehyde for bone density and histomorphometric analysis. The trabecular bone microstructure of the left femur was investigated using a Quantum GX micro-computed tomography (micro-CT) imaging system (PerkinElmer, Hopkinton, MA, USA) located at the Korea Institute of Basic Science (Gwangju, Korea). X-ray source settings included a voltage of 90 kV and a current of 88 uA, with a field of view of 10 mm (voxel size, 20 μm; scan time, 4 min). Three-dimensional (3D) images were obtained with 3D Viewer, an existing software in Quantum GX, and the resolution was set to 4.5 μm. After scanning, the structural parameters of the trabecular bone were analyzed using Analyze 12.0 software (Analyze Direct, Overland Park, KS, USA).
# For histological observations, formalin-fixed femurs were […] in 10% ethylenediaminetetraacetic acid (EDTA) and dehydrated by passing through a graded ethanol series. Calcified femurs were then embedded in paraffin wax, cut into 5-μm-thick sections, and stained with hematoxylin and eosin (H&E). Histological sections were observed under an optical microscope (Bx41; Olympus, Tokyo, Japan), and photographs were taken focusing on the central portion of the growth plate.
# [3] = system: dexamethasone-induced mouse osteoporosis model; assay: Serum bone formation and resorption markers and calcium; format: in vivo, C57BL/6 mice
# Protocol: as §1
# After the final treatment once daily, serum samples were collected from mouse whole blood by centrifugation at 2000×g for 20 minutes. Then, the serum levels of osteocalcin, procollagen I N-terminal pro-peptide (PINP), and C-terminal cross-linked telopeptide of type I collagen (CTx) in each sample were determined according to the manufacturer's instructions using the Mouse Osteocalcin ELISA kit (LifeSpan BioSciences, Inc., Seattle, WA, USA), Rat/Mouse PINP EIA kit (Immunodiagnostic Systems Holdings Ltd., Tyne & Wear, UK), and RatLaps™ CTx-I EIA (Immunodiagnostic Systems Holdings Ltd.) was used to confirm each. In addition, the serum calcium level was confirmed through a colorimetric assay at 560 nm (Sigma-Aldrich).
# [4] = Particle size, PDI and zeta potential (dynamic light scattering) and TEM; format: physicochemical; settings: dispersed in deionized water, 25° C.
# Protocol: The characterization of the secondary structure of RP/LDA/DA-DM was confirmed by […] of TRP, TRP-DM, TRP/LDA/DA, and TRP/LDA/DA-DM, using 10 µM of the complex in water at 20° C. Measurements were made in the 180 to 260 nm range on a JASCO spectropolarimeter (Jasco Inc., Easton, MD, USA) using a 10 mm cuvette. All spectra were background-corrected and calculated in units of average residual ellipticity. This represents an average of 10 scan values. The optimized TRP/LDA/DA-DM [i.e., TRP (1:5:7)-15] was also characterized for average particle size, polydispersity index (PDI), and zeta potential using a dynamic light scattering analyzer (Malvern Zetasizer Nano ZS90; Malvern Instruments, Malvern, UK) at 25° C. TRP/LDA/DA-DM was dispersed in deionized water and sonicated for 1 min to minimize multi-scattering effects. In addition, morphological evaluation of the TRP formulation was performed by transmission electron microscopy (TEM). The diluted dispersion was placed on a copper grid, excess fluid was removed using filter paper, and negative staining was performed with a 2% aqueous solution of phosphortungstic acid. The prepared grids were observed by high-resolution TEM (HRTEM; JEM-200; JEOL, Tokyo, Japan).
# [5] = SC 0.02 mg/kg TRP once daily, 4 weeks
# [6] = SC 0.022 mg/kg DEX once daily, 4 weeks
compound,measurement,setting,value
"CC[C@H](C)[C@H](NC(=O)[C@H](CCC(=O)O)NC(=O)[C@H](CO)NC(=O)[C@@H](NC(=O)[C@@H](N)CO)C(C)C)C(=O)N[C@@H](CCC(N)=O)C(=O)N[C@@H](CC(C)C)C(=O)N[C@@H](CCSC)C(=O)N[C@@H](Cc1cnc[nH]1)C(=O)N[C@@H](CC(N)=O)C(=O)N[C@@H](CC(C)C)C(=O)NCC(=O)N[C@@H](CCCCN)C(=O)N[C@@H](Cc1cnc[nH]1)C(=O)N[C@@H](CC(C)C)C(=O)N[C@@H](CC(N)=O)C(=O)N[C@@H](CO)C(=O)N[C@@H](CCSC)C(=O)N[C@@H](CCC(=O)O)C(=O)N[C@@H](CCCN=C(N)N)C(=O)N[C@H](C(=O)N[C@@H](CCC(=O)O)C(=O)N[C@@H](Cc1c[nH]c2ccccc12)C(=O)N[C@@H](CC(C)C)C(=O)N[C@@H](CCCN=C(N)N)C(=O)N[C@@H](CCCCN)C(=O)N[C@@H](CCCCN)C(=O)N[C@@H](CC(C)C)C(=O)N[C@@H](CCC(N)=O)C(=O)N[C@@H](CC(=O)O)C(=O)N[C@H](C(=O)N[C@@H](Cc1cnc[nH]1)C(=O)N[C@@H](CC(N)=O)C(=O)N[C@@H](Cc1ccccc1)C(=O)O)C(C)C)C(C)C [TRP, Human PTH (1-34) acetate]",bioavailability,"[1]; Oral, 1.6 mg/kg TRP, relative to SC 0.04 mg/kg",0.559 ± 0.293%
same,AUC(0-inf),"[1]; Oral, 1.6 mg/kg TRP",0.296 ± 0.0189 ng·h/mL
same,AUC(0-t),"[1]; Oral, 1.6 mg/kg TRP",0.135 ± 0.0704 ng·h/mL
same,Cmax,"[1]; Oral, 1.6 mg/kg TRP",0.155 ± 0.0572 ng/mL
same,Tmax,"[1]; Oral, 1.6 mg/kg TRP",78 ± 16.2 min
same,half-life,"[1]; Oral, 1.6 mg/kg TRP",43.2 ± 10.8 min
same,bioavailability,"[1]; SC, 0.04 mg/kg TRP (reference), read-out: Relative bioavailability",100%
same,AUC(0-inf),"[1]; SC, 0.04 mg/kg TRP",0.752 ± 0.0269 ng·h/mL
same,AUC(0-t),"[1]; SC, 0.04 mg/kg TRP",0.601 ± 0.12 ng·h/mL
same,Cmax,"[1]; SC, 0.04 mg/kg TRP",0.807 ± 0.135 ng/mL
same,Tmax,"[1]; SC, 0.04 mg/kg TRP",30 min
same,half-life,"[1]; SC, 0.04 mg/kg TRP",24 min
same,"trabecular bone microarchitecture, 3D micro-CT image of the femur","[2]; SC 0.02 or oral 0.4 and 0.8 mg/kg TRP, versus control (DEX) and TRP-Oral (0.4)",denser trabecular bone microarchitecture
same,"trabecular bone, H&E-stained histology of distal femora","[2]; SC 0.02 or oral 0.4 or 0.8 mg/kg TRP, versus control (DEX) and TRP-Oral (0.4)",increased structural integrity and denser trabecular bone microarchitecture
same,BMD higher than the DEX group,[2]; SC 0.02 mg/kg TRP once daily,29.4%
same,BV/TV higher than the control (DEX) group,[2]; SC 0.02 mg/kg TRP once daily,13.2%
same,Tb. Sp lower than the control (DEX) group,[2]; SC 0.02 mg/kg TRP once daily,17.4%
same,Tb.N higher than the control (DEX) group,[2]; SC 0.02 mg/kg TRP once daily,2.8%
same,Tb.Th higher than the control (DEX) group,[2]; SC 0.02 mg/kg TRP once daily,45.2%
same,BMD higher than the control (DEX) group,[2]; oral 0.4 mg/kg TRP once daily,did not produce a significant improvement
same,PINP higher compared to the control (DEX) group,[3]; [5],1.19 times
same,serum osteocalcin level higher than TRP-oral (0.4) group,[3]; [5],9.68%
same,serum osteocalcin level higher than control group (DEX),[3]; [5],28.2%
same,serum osteocalcin level higher than control group (normal),[3]; [5],18.2%
same,"serum calcium levels, maximum increase compared to the control (normal) group","[3]; SC 0.02 mg/kg TRP, at 6 hours, day 28",21.4%
same,PINP secretion increase compared to DEX-treated mice only,"[3]; oral 0.4 mg/kg TRP once daily, 4 weeks",not recovered
"C[C@@H]1C[C@H]2[C@@H]3CCC4=CC(=O)C=C[C@]4(C)[C@@]3(F)[C@@H](O)C[C@]2(C)[C@@]1(O)C(=O)CO [DEX, dexamethasone]",BMD of the total femur,[2]; SC 0.022 mg/kg DEX once daily,123 ± 7.92 mg/mL
same,SMI change compared to the control (normal) group,[2]; SC 0.022 mg/kg DEX once daily,−21.1%
same,Tb.Th change compared to the control (normal) group,[2]; SC 0.022 mg/kg DEX once daily,−7.98%
same,serum CTx increase compared to the control (normal) group,[3]; [6],48.9%
same,serum PINP reduction compared to the control (normal) group,[3]; [6],26.0%
"CCCCCCCCCCCCO[C@@H]1O[C@H](CO)[C@@H](O[C@H]2O[C@H](CO)[C@@H](O)[C@H](O)[C@H]2O)[C@H](O)[C@H]1O [DM, n-dodecyl-β-D-maltoside]",Particle size,[4],7.43 nm
same,Polydispersity index (PDI),[4],0.045
same,Zeta potential,[4],−0.260 mV
